This is an account of results in patent US8003096B2, “Means and methods for the recruitment and identification of stem cells” (Vlaams Interuniversitair Instituut voor Biotechnologie VZW, priority 2003, dated 2011).

One assay concerns sKitL. In words: sKitL levels in BM plasma (ELISA). Type of assay: in vivo, mouse. The settings on record: WT mice. The protocol:
BM extracellular fluid (BM plasma) from mice was obtained as described previously (Petit et al. (2002), Nat. Immunol. 3:687-94). BM plasma from healthy volunteers was obtained by using the first 10 ml of collection via puncture in the iliac crest under local anesthesia, and immediate anti-coagulation with EDTA. Protein extraction on BM cells was performed as described (Heymans et al. (1999), Nat. Med. 5:1135-42). Murine sKitL and SDF1α protein levels were quantified using commercial available ELISA (R&D Systems, Abingdon, UK). Murine plasminogen, and murine and human suPAR were quantified by home-made ELISA (Heymans et al. (1999), Nat. Med. 5:1135-42; Sier et al. (2004), Thromb. Haemost. 91:403-11). Lyophilized pertussis toxin was obtained from List Laboratories. MMP-2, MMP-9, and MMP-12 activities were measured using gelatin-zymography, uPA and MMP-3 activities were measured using casein-zymography, as described previously (Heymans et al. (1999), Nat. Med. 5:1135-42). Samples from gene-deficient mice were used as negative controls. Plasmin activity of BM plasma or cells (pericellular activity) was measured using substrate colorimetry (S2403), as described previously (Heymans et al. (1999), Nat. Med. 5:1135-42). Fibrinolytic activity was measured using a modified fluorescent-based in vitro clot lysis assay (Heymans et al. (1999), Nat. Med. 5:1135-42). Western blotting was performed on non-reduced samples, which were neutralized with a cocktail of protease inhibitors (Complete Inhibitor, Roche). ECM components/fragments were detected with antibodies against mouse fibronectin and laminin (Sigma), and human D1D2D3 and D2D3 (Andolfo et al. (1999), Thromb. Haemost. 88:298-306), secondary HRP-labeled antibodies (DAKO), and ECL detection system (Amersham Pharmacia).
(In general: An ELISA detects its analyte on a solid surface through an enzyme-linked reagent.)

For the next assay, the system named is plasmin. In words: Plasmin activity in BM plasma, chromogenic assay. The assay is classed as in vivo, mouse. The settings on record: WT mice. The protocol:
To study the role of the plasminogen proteinase system with its plasminogen activators tPA and uPA, and active plasmin in stem/progenitor cell mobilization, mice lacking plasminogen (Plg^−/−), tPA (tPA^−/−), uPA (uPA^−/−) and both activators (tPA^−/−uPA^−/−) were used.^(17, 18) Age- and sex-matched mice were kept in IVC cages. Mobilization was induced either via a single sublethal injection i.v. of the myeloablative agent 5-fluorouracil (5-FU, 200-250 mg/kg), or via administration s.c. of recombinant human G-CSF (Filgrastim, Amgen, 200 μg/kg/d) for five consecutive days.^(12) Peripheral blood (PB) samples were obtained by retro-orbital bleeding under light anesthesia. Full blood counts were determined on the Abbott Cell Dyn 1300 hemocytometer. The number of mobilized hematopoietic progenitor cells (HPCs) in the circulation was determined via methylcellulose-based CFU-C assays (MethoCult, Stem Cell Technologies), per 10^5 peripheral blood mononuclear cells (PB MNCs).^(12) The number of mobilized hematopoietic stem cells (HSCs) in the circulation was quantified via splenic colony-forming assays (CFU-S), and evaluated for long-term engraftment via transplantation into lethally irradiated syngeneic wild-type recipients (9.5 Gy total body irradiation). […]

Consider `O=c1[nH]cc(F)c(=O)[nH]1` [5-FU, 5-fluorouracil], for which the “elevation of sKitL levels in the BM plasma” value is given as 14 fold in the assay on sKitL (seven days after treatment) and 2.5 fold with sKitL (ten days after treatment). Besides, the “plasmin activity in BM plasma” value in the assay with plasmin (after single i.v. bolus, N=4) is on record as 75±14 U. The “elevation of plasmin activity in BM plasma above baseline” value in the assay with plasmin (single i.v. bolus) is “five-fold”.
